What was measured:
[1] = compared to BCNU; cited from earlier work
xenografts in nude mice = conditions: in some cases; cited from earlier work
[2] = tested on: human renal cell carcinomas (SKRC-7, 786-0); format: cell-based
Sprague-Dawley rats = conditions: corresponding amounts of unconjugated Orellanine, within four days; cited from earlier work
human renal cancer cells = conditions: cells derived from a primary tumor or from metastatic tumor tissue; cited from earlier work

In the case of `O=NN(CCCl)C(=O)NCCO` [HECNU, 1-(2-chloroethyl)-1-nitroso-3-(2-hydroxyethyl)urea], the water solubility [1] is listed as “improved water solubility”.
In the case of `Cc1cc(N(CCOS(C)(=O)=O)CCOS(C)(=O)=O)ccc1C=O` [NSC-281612], the “effect on tumor mass” value (xenografts in nude mice) is given as “apparently complete eradication of the tumor mass”.
In the case of `[O-][n+]1ccc(O)c(O)c1-c1c(O)c(O)cc[n+]1[O-]` [Orellanine, 3,3′,4,4′-tetrahydroxy-2,2′-bipyridine-N,N′-dioxide], the “correlation between exposure concentration and fraction of cells that die” value [2] is given as “clear correlation”, the “delay between administration and onset of cell death” value [2] is given as 48 h and the “loss of GFR” value (Sprague-Dawley rats) is given as “almost total loss of GFR”. The “killing of renal cancer cells” value (human renal cancer cells) was “kills them with great efficiency”.
